Values of other authors, collected in patent US4749688A, “Use of neutral metalloendopeptidase inhibitors in the treatment of hypertension” (Schering Corporation, priority 1986, dated 1988).

Key:
peripheral ACE = peripheral ACE (Homo sapiens, UniProt P12821)
[1] = in vivo

Sequence of peripheral ACE (P12821 30-1306): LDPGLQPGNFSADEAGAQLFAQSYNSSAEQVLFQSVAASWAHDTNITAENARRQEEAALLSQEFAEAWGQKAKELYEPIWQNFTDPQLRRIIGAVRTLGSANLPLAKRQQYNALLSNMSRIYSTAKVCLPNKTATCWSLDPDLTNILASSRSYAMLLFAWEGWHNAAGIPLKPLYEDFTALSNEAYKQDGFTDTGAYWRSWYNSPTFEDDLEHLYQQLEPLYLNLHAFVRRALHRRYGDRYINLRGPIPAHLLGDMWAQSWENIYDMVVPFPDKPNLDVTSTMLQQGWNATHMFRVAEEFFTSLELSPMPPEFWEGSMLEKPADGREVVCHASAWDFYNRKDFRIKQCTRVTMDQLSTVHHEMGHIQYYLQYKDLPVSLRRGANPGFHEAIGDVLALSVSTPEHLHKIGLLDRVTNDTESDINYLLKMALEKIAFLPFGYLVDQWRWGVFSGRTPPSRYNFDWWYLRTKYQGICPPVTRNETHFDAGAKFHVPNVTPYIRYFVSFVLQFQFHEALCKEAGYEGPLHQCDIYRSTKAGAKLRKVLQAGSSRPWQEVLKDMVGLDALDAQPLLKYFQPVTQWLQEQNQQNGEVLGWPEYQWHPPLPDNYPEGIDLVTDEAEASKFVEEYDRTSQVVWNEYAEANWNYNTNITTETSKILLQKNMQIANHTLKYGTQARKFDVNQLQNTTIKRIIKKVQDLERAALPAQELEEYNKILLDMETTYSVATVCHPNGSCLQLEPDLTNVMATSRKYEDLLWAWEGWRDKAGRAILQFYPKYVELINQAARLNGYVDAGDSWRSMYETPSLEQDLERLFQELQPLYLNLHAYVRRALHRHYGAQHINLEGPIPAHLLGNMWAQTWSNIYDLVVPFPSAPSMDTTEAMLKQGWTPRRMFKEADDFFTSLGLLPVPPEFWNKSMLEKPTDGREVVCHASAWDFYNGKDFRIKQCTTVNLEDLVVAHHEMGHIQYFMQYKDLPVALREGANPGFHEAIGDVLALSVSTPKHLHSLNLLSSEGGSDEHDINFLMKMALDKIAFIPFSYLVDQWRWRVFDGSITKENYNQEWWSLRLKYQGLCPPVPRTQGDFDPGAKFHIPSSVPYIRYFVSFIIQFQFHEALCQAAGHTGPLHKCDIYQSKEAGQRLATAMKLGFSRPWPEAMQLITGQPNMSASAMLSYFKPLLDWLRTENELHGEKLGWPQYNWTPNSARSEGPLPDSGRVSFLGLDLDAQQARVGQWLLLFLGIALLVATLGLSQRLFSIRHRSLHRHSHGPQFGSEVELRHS

O=C(O)CNC(=O)C(CS)Cc1ccccc1 (racemic) [thiorphan, N-[(R,S)-3-mercapto-2-benzylpropanoyl]-glycine]
inhibition of peripheral ACE (peripheral ACE): inhibit peripheral ACE
blood pressure [1]: not affected
heart rate [1]: not affected
